Results from PMC8998355, “Diversity-Oriented Synthesis Catalyzed by Diethylaminosulfur-Trifluoride—Preparation of New Antitumor Ecdysteroid Derivatives” (International Journal of Molecular Sciences, 2022).

How the values were obtained:
[1] = target: T1, ABCB1 (Homo sapiens, UniProt P08183); assay: ABCB1 inhibition assay (rhodamine 123 accumulation, flow cytometry); assay type: cell-based; conditions: human, probe rhodamine 123 (5.2 µM); for inhibition at 20 min, 2 µM / inhibition at 20 min, 20 µM: n = 1
T1 construct: expressed in transfected cells; host or cells: L5178Y mouse T-cell lymphoma cells transfected with pHa MDR1/A retrovirus, selected with colchicine (L5178YMDR)
Experimental: ABCB1 inhibition was determined by the intracellular accumulation of rhodamin 123 as reported before. Briefly, 2 × 10^6 cells/mL of L5178Y and L5178YMDR cell lines were re-suspended in serum-free McCoy’s 5A medium and distributed in 0.5 mL aliquots into Eppendorf centrifuge tubes. The compounds were added at a final concentration of 2 or 20 μM and the samples were incubated for 10 min at room temperature. Tariquidar was used as positive control and DMSO as negative control; for the latter, no activity was observed. Subsequently, 10 μL (5.2 μM final concentration) of the ABCB1 substrate fluorescent dye rhodamine 123 was added and the cells were incubated further for 20 min at 37 °C, washed twice and re-suspended in 1 mL PBS for analysis. Fluorescence of the cell population was measured with a PartecCyFlow® flow cytometer (Partec, Münster, Germany). Mean fluorescence intensity percentage was calculated for the treated vs. untreated L5178YMDR cells. Inhibition percentage for the treated cells was calculated from the corresponding values of the untreated L5178Y and L5178YMDR cells, representing 100% and 0% inhibition, respectively.

[2] = system: L5178YMDR cells (ABCB1-expressing); assay: MTT cytotoxicity assay (24 h, 1 × 10^4 cells); assay type: cell-based; conditions: Mus musculus, 24 h MTT, n = 3, read-out: Cytotoxicity (IC50 ± SD)
Experimental: (§1) To assess the compounds’ effect on cell growth and viability, we used two different experimental setups of MTT assay. This allowed a comparative evaluation of results obtained from a short-term (24 h) treatment of a relatively higher number (10,000) of cells and those from a long-term (72 h) treatment of a lower cell number (6000), which makes it possible to gain some insight into the cytotoxic vs. cytostatic properties of the compounds. Even though MTT assay is an endpoint detection method, i.e., it provides a single readout of viable cells at the end of the experiment, such a comparison offers a reliable tool to identify antiproliferative activity of compounds that are not cytotoxic.
(§2) L5178Y mouse T-cell lymphoma cells (ECACC Cat. No. 87111908) were obtained from FDA, Silver Spring, MD, USA. These were transfected with pHa MDR1/A retrovirus as described previously. ABCB1-expressing L5178YMDR cells were selected by culturing the infected cells with colchicine. The cell lines were cultured in McCoy’s 5A medium supplemented with 10% heat inactivated horse serum, 2 mM L-glutamine, and penicillin–streptomycin mixture.
(§3) MTT assay was performed in 96-well flat-bottomed microtiter plates as described before. Briefly, a 10 mM concentration stock solution in DMSO was prepared for each compound. These were diluted in 100 μL of McCoy’s 5A medium. Subsequently, 1 × 10^4 (cytotoxicity assay) or 6 × 10^3 (antiproliferative assay) T-cell mouse lymphoma cells in 100 μL of medium were added to each well, except for the medium control wells.
(§4) The culture plates were further incubated at 37 °C for 24 h (cytotoxicity assay) or 72 h (antiproliferative assay); at the end of the incubation period, 20 μL of MTT solution (from a 5 mg/mL stock) was added to each well. After incubation at 37 °C for 4 h, 100 μL of SDS solution (10% in 0.01 M HCI) was added to each well and the plates were further incubated at 37 °C overnight. The cell growth was determined by measuring the optical density at 540 nm (ref. 630 nm) with a Multiscan EX ELISA reader (Thermo Labsystems, Cheshire, WA, USA). IC50 values were calculated by variable slope nonlinear regression using the log(inhibitor) vs. normalized response of GraphPad Prism 5.01 (GraphPad Software Inc., San Diego, CA, USA).

[3] = system: L5178Y mouse T-cell lymphoma cells; assay: MTT cytotoxicity assay (24 h, 1 × 10^4 cells); assay type: cell-based; conditions: 24 h MTT, n = 3, read-out: Cytotoxicity (IC50 ± SD)
Experimental: as §1, §2, §3, §4

[4] = MTT cytotoxicity assay (24 h); assay type: cell-based; conditions: human, MRC-5 human embryonal lung fibroblasts; MRC-5, 24 h MTT, n = 3; read-out: Cytotoxicity (IC50 ± SD)
Experimental: as §1
(§5) MRC-5 human embryonal lung fibroblasts (CCL-171, ATCC) were acquired from Sigma-Aldrich (Merck, KGaA, Darmstadt, Germany), and were cultured in EMEM medium containing 4.5 g/L glucose and supplemented with a non-essential amino acid mixture, a selection of vitamins, and 10% of FBS.
(§6) The adherent human fibroblast cells were seeded in 100 μL of EMEM medium overnight before each assay. Two-fold serial dilutions of the compounds (0.19–100 µM) were prepared in separate plates, then transferred to the plates containing the adherent cell lines.
as §4

[5] = system: MRC-5 human embryonal lung fibroblasts; assay: MTT antiproliferative assay (72 h); assay type: cell-based; conditions: Homo sapiens, MRC5; MRC-5, 72 h MTT, n = 3; read-out: Antiproliferative Effect (IC50 ± SD)
Experimental: as §1, §5, §6, §4

[6] = system: L5178YMDR cells (ABCB1-expressing); assay: MTT antiproliferative assay (72 h, 6 × 10^3 cells); assay type: cell-based; conditions: Mus musculus, 72 h MTT, n = 3, read-out: Antiproliferative Effect (IC50 ± SD)
Experimental: as §1, §2, §3, §4

[7] = system: L5178Y mouse T-cell lymphoma cells; assay: MTT antiproliferative assay (72 h, 6 × 10^3 cells); assay type: cell-based; conditions: Mus musculus; L5178Y, 72 h MTT, n = 3; read-out: Antiproliferative Effect (IC50 ± SD)
Experimental: as §1, §2, §3, §4

[8] = system: L5178YMDR cells; assay: Combination assay with doxorubicin (checkerboard microplate method, MTT); assay type: cell-based, mouse; set-up: Dm (antilog of the x-intercept of the median-effect plot): unit not given here; conditions: for CIavg (weighted average CI): (CI50 + 2CI75 + 3CI90)/6
Experimental: Compounds 7, 10, 11, 13, and 14 had sufficient individual antiproliferative properties for their assessment of chemo-sensitizing activity. This was carried out as an antiproliferative assay on L5178YMDR cells in combination with doxorubicin, arranged according to the checkerboard microplate method.
The checkerboard microplate method was used to evaluate the compounds’ interaction with doxorubicin, as described before. Briefly, doxorubicin (2 mg/mL, Teva Pharmaceuticals, Budapest, Hungary) was serially diluted in the horizontal direction (100 µL per well), and the ecdysteroid was subsequently diluted in the vertical direction (50 µL per well). L5178YMDR cells were re-suspended in culture medium and added to each test well in 50 µL to contain 1 × 10^4 cells per well, and 50 µL of medium was added to the medium control wells. The plates were incubated for 72 h at 37 °C in a CO2 incubator and, at the end of the incubation period, the cell growth was determined by MTT assay as described above. Cell viability data were analyzed by the Calcusyn software using the Chou method, and drug interactions were expressed as combination index (CI) values, in which 0 < CI < 1, CI = 1, and CI > 1 refer to synergism, additivity, and antagonism, respectively.

[9] = L5178YMDR, rhodamine 123 accumulation
[10] = drug ratio 11.6:1, with doxorubicin
[11] = drug ratio 23.1:1, with doxorubicin
[12] = drug ratio 46.4:1, with doxorubicin
[13] = drug ratio 23.2:1, with doxorubicin
[14] = drug ratio 92.8:1, with doxorubicin
[15] = drug ratio 185.6:1, with doxorubicin

SMILES | inhibition at 20 min, 2 µM [1, 9] [%] | inhibition at 20 min, 20 µM [1, 9] [%] | IC50 [2] [µM] | IC50 [3] [µM] | IC50 at 24 h [4] [µM] | IC50 [5] [µM] | IC50 [6] [µM] | IC50 [7] [µM] | other results
CC(=O)[C@H]1CC[C@@]2(O)C3=CC(=O)[C@@H]4C[C@H]5OC(C)(C)O[C@H]5C[C@]4(C)[C@H]3[C@H](O)C[C@]12C [Compound 3] | -0.03 | -0.35 | > 100 | > 100 | > 100 | 21.4 ± 0.2 | > 100 | 75.5 ± 4.1 | –
CC(=O)[C@H]1CC[C@@]2(O)C3=CC(=O)[C@@H]4C[C@H]5OC(C)(C)O[C@H]5C[C@]4(C)C3=CC[C@]12C [Compound 5] | 0.2 | -0.41 | > 100 | > 100 | > 100 | 20.9 ± 3.6 | 80.2 ± 2.1 | 56.5 ± 6 | –
CC(=O)[C@H]1CC=C2C3=CC(=O)[C@@H]4C[C@H]5OC(C)(C)O[C@H]5C[C@]4(C)C3=CC[C@@]21C [Compound 6] | -0.38 | 0.13 | > 100 | 91.1 ± 6.8 | > 100 | > 100 | 54.1 ± 2.3 | 31.2 ± 3.9 | –
CC(=O)[C@H]1CC[C@@]2(F)C3=CC(=O)[C@@H]4C[C@H]5OC(C)(C)O[C@H]5C[C@]4(C)C3=CC[C@]12C [Compound 7] | -0.24 | 0.29 | 57.5 ± 6.3 | 38.6 ± 1.6 | > 100 | > 100 | 20 ± 2.4 | 15.2 ± 1.9 | CI at ED75 [8, 10]: 0.76; CI at ED90 [8, 10]: 0.59; Dm (antilog of the x-intercept of the median-effect plot) [8, 10]: 4.05; CIavg (weighted average CI) [8, 10]: 0.71; CI at ED75 [8, 11]: 1.26; CI at ED90 [8, 11]: 1.37; Dm (antilog of the x-intercept of the median-effect plot) [8, 11]: 7.83; CIavg (weighted average CI) [8, 11]: 1.30; CI at ED75 [8, 12]: 0.84; CI at ED90 [8, 12]: 0.60; Dm (antilog of the x-intercept of the median-effect plot) [8, 12]: 11.56; CIavg (weighted average CI) [8, 12]: 0.78
CC(=O)[C@H]1CC[C@@]2(O)C3=CC(=O)[C@@H]4C[C@H]5OC(C)(C)O[C@H]5C[C@]4(C)[C@H]3CC[C@]12C [Compound 9, poststerone 2,3-acetonide] | -0.4 | -0.42 | > 100 | > 100 | > 100 | > 100 | 85.2 ± 5.1 | 49.2 ± 3.4 | –
CC(=O)[C@H]1CC=C2C3=CC(=O)[C@@H]4C[C@H]5OC(C)(C)O[C@H]5C[C@]4(C)[C@H]3CC[C@@]21C [Compound 10] | -0.38 | -0.16 | 83 ± 5 | 72.9 ± 5.6 | > 100 | > 100 | 42.3 ± 1.5 | 27.7 ± 0.6 | CI at ED75 [8, 13]: 0.50; CI at ED90 [8, 13]: 0.33; Dm (antilog of the x-intercept of the median-effect plot) [8, 13]: 6.50; CIavg (weighted average CI) [8, 13]: 0.46; CI at ED75 [8, 12]: 0.51; CI at ED90 [8, 12]: 0.30; Dm (antilog of the x-intercept of the median-effect plot) [8, 12]: 10.99; CIavg (weighted average CI) [8, 12]: 0.46; CI at ED75 [8, 14]: 0.55; CI at ED90 [8, 14]: 0.35; Dm (antilog of the x-intercept of the median-effect plot) [8, 14]: 14.02; CIavg (weighted average CI) [8, 14]: 0.50; CI at ED75 [8, 15]: 0.61; CI at ED90 [8, 15]: 0.36; Dm (antilog of the x-intercept of the median-effect plot) [8, 15]: 19.47; CIavg (weighted average CI) [8, 15]: 0.55
CC(=O)O[C@H]1C[C@@]2(C)C(=C(O)C(=O)C3=C2CC[C@@]2(C)C3=CC[C@@H]2[C@@]2(C)OC(C)(C)O[C@@H]2CCC(C)(C)O)C[C@H]1O [Compound 16, calonysterone 2-acetate 20,22-acetonide] | 0.71 | 15.7 | 78.7 ± 6.7 | 63 ± 4.4 | > 100 | 67.2 ± 14.6 | 40 ± 3.4 | 50.3 ± 0.2 | –
CC(=O)O[C@H]1C[C@]2(C)C3=CC[C@@]4(C)C(=CC[C@@H]4[C@@]4(C)OC(C)(C)O[C@@H]4CCC(C)(C)O)C3=C(O)C(=O)[C@@]23C[C@@H]13 [Compound 17] | 1.08 | 45.5 | 35.9 ± 0.6 | 27.2 ± 1 | – | 5.9 ± 1.2 | 14.3 ± 0.5 | 20.3 ± 1 | inhibition at 20 min ([1]; concentration not given, read-out: direct ABCB1 inhibition): ~50%
COc1cccc2c1C(=O)c1c(O)c3c(c(O)c1C2=O)C[C@@](O)(C(=O)CO)C[C@@H]3O[C@H]1C[C@H](N)[C@H](O)[C@H](C)O1 [Doxorubicin, reference compound] | – | – | 8.1 ± 2.8 | 0.3 ± 0.1 | 1.7 ± 0.5 | – | 0.71 ± 0.2 | 0.014 ± 0.002 | –
COc1cc2c(cc1OC)CN(CCc1ccc(NC(=O)c3cc(OC)c(OC)cc3NC(=O)c3cnc4ccccc4c3)cc1)CC2 [tariquidar, reference compound] | – | – | – | – | – | – | – | – | inhibition at 20 min, 0.02 µM ([1]; 20 nM, L5178YMDR, rhodamine 123 accumulation, read-out: ABCB1 inhibition, positive control): 87.5%
